Assay results: ChEMBL document CHEMBL3596095, “Design, synthesis, and biological activity of phenyl-pyrazole derivatives as BCR-ABL kinase inhibitors” (Bioorg Med Chem, 2015)

How the values were obtained:
Bcr/Abl fusion protein = Bcr/Abl fusion protein (Homo sapiens, UniProt P00519); assay: Inhibition of BCR-ABL1 (unknown origin) assessed as ATP remaining by Kinase-Glo luminescent kinase assay
K562 = assay: cells; format: functional, cell-based; settings: Homo sapiens, K562, 48 h
Description: Antitumor activity against human K562 cells assessed as inhibition of cell growth after 48 hrs by MTT assay

Chain of Bcr/Abl fusion protein (P00519 whole entry, the tested form may be a part): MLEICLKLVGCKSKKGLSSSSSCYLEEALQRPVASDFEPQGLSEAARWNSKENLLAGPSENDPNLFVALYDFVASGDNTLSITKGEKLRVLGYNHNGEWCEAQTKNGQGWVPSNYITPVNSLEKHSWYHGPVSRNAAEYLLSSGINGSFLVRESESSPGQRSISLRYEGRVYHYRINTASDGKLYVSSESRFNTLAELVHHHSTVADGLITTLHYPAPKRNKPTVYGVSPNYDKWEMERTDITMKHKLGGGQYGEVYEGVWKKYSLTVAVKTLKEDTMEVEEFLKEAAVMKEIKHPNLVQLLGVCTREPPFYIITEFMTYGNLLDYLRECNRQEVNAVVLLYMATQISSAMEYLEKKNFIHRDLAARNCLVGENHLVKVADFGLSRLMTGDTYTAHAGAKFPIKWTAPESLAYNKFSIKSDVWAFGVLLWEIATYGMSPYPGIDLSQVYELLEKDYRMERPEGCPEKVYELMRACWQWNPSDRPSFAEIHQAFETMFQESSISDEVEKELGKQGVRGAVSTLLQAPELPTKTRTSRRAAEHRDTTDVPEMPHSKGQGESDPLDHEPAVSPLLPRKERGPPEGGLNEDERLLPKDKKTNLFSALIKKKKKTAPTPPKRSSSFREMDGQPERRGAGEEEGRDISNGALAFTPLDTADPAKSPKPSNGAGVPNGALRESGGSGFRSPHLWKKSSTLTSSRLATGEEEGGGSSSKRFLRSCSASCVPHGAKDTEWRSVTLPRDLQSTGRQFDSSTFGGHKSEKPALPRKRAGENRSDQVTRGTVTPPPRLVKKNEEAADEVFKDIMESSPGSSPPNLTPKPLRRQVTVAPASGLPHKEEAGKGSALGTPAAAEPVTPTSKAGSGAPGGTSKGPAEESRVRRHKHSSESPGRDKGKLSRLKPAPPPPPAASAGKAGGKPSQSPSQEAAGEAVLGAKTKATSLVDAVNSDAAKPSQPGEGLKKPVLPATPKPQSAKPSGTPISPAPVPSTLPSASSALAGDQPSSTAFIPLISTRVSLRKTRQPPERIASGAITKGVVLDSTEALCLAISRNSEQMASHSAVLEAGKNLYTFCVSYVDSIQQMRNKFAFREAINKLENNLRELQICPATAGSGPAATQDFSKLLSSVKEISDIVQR
Chain of Bcr/Abl fusion protein (P11274 whole entry, further chain, the tested form may be a part): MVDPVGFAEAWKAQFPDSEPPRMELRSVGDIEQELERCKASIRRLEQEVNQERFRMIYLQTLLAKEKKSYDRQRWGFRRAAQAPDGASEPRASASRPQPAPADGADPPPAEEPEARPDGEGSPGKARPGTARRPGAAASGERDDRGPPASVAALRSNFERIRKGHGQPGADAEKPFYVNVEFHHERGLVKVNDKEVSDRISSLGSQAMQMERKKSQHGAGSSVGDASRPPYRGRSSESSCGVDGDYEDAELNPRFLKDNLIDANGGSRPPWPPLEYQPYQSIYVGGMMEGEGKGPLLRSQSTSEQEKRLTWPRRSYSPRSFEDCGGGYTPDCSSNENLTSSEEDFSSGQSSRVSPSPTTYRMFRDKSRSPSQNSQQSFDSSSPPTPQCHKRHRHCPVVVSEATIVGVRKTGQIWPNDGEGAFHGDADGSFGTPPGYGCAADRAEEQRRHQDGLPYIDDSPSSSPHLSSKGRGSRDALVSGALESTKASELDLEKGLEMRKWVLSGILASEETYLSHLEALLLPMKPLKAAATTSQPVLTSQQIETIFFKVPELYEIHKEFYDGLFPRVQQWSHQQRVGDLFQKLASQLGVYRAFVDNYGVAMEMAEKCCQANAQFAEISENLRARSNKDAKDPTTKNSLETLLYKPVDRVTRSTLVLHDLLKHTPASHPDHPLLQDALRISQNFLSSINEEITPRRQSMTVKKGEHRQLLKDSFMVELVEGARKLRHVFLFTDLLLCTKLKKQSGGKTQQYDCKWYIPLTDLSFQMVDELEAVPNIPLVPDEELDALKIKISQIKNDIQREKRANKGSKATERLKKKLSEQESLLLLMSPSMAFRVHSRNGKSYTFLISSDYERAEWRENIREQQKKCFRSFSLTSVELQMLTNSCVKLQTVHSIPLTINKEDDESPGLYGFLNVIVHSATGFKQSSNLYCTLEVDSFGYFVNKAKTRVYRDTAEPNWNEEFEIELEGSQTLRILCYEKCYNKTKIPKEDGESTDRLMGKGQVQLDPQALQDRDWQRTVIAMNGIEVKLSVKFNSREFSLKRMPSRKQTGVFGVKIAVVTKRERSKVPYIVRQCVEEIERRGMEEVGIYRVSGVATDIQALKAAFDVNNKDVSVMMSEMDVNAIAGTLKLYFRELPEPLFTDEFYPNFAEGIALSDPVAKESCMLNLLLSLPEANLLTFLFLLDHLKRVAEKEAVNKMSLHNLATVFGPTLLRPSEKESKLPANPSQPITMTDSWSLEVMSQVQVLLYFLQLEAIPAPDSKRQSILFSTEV

Row | IC50 (Bcr/Abl fusion protein) [nM] | IC50 (K562) [nM] | Compound
1 | 50.6 | 1670 | Cc1ccc(NC(=O)c2ccc(CN3CCN(C)CC3)cc2)cc1-n1cc(-c2cccnc2)cn1
2 | 117 | 2740 | Cc1ccc(NC(=O)c2ccc(CN3CCCC3)cc2)cc1-n1cc(-c2cccnc2)cn1
3 | 175 | 98300 | Cc1ccc(NC(=O)c2ccc(CN3CCN(CCO)CC3)cc2)cc1-n1cc(-c2cccnc2)cn1
4 | 16.9 | 2330 | CCN1CCN(Cc2ccc(C(=O)Nc3ccc(C)c(-n4cc(-c5cccnc5)cn4)c3)cc2)CC1
5 | 26.6 | 8650 | Cc1ccc(NC(=O)c2ccc(CN3CCCN(C)CC3)cc2)cc1-n1cc(-c2cccnc2)cn1

Second part, the molecule before the results:

Row | Compound | IC50 (Bcr/Abl fusion protein) [nM] | IC50 (K562) [nM]
6 | CCc1ccc(C(=O)Nc2ccc(C)c(-n3cc(-c4cccnc4)cn3)c2)cc1 | 41 | 6520
7 | Cc1ccc(NC(=O)c2cccc(C(F)(F)F)c2)cc1-n1cc(-c2cccnc2)cn1 | 14.2 | 270
8 | CCN(CC)Cc1ccc(C(=O)Nc2ccc(C)c(-n3cc(-c4cccnc4)cn3)c2)cc1 | 129 | 3260
9 | Cc1ccc(NC(=O)c2ccc(C(F)(F)F)cc2)cc1-n1cc(-c2cccnc2)cn1 | 43.3 | 760
10 | Cc1ccc(NC(=O)c2ccc(CN3CCOCC3)cc2)cc1-n1cc(-c2cccnc2)cn1 | 178 | 21500
11 | Cc1ccc(NC(=O)c2ccc(Cn3ccnc3)cc2)cc1-n1cc(-c2cccnc2)cn1 | 326 | 136000
12 | COc1ccc(C(=O)Nc2ccc(C)c(-n3cc(-c4cccnc4)cn3)c2)cc1 | 46.2 | 18300
13 | Cc1ccc(NC(=O)c2cccc(Cl)c2)cc1-n1cc(-c2cccnc2)cn1 | 15.9 | 1320
14 | Cc1ccc(NC(=O)c2ccc(F)cc2)cc1-n1cc(-c2cccnc2)cn1 | 214 | 12500
